Tests used:
Assay type in all cases: biochemical
bGGPTase-I = target: T1, bGGPTase-I (Bos taurus, UniProt P29702+Q5EAD5); assay: In vitro inhibition of geranylgeranyl protein transferase type I purified from bovine brain (transferase assay); details: 500 nM Ras-CAIL, 100 nM geranylgeranyl diphosphate, 30 °C
T1 construct: Cerebral lobes from bovine brains were homogenized in lysis buffer; from tissue; host or cells: bovine brain (cerebral lobes)
Method: Purification of isoprenyl-protein transferases. All purification steps were performed at 4 ° C. Cerebral lobes from bovine brains were homogenized in lysis buffer containing 50 mM Tris-Cl, pH 8.0, 1 mM EGTA, 1 mM MgCl2, 5 mM dithiothreitol, 10 μg/mL aprotinin, 0.5 mM phenylmethyl sulfonyl fluoride (PMSF), 2 μg/mL antipain and 2 μg/mL leupeptin (M.D. Schaber et al. J. Biol. Chem., 265:14701 (1990)). Cellular debris and membranes were removed by centrifugation (10 000 g for 20 rain followed by 100 000 g for 30 minutes). The supematant was loaded directly onto a column (30 cm × 20 cm^2) of DEAE-Sephacel that had been equilibrated with lysis buffer. The column was washed with the same buffer and proteins were eluted with a linear gradient of NaCl (0-500 mM, 1 L+L) in the same buffer. Fractions (20 mL) were collected and those containing different transferase activities were pooled separately. This procedure resolved FTase and GGPTase-II from GGPTase-I. Each pool was then applied to an ω-Aminooctyl agarose colurctn (30 cm×4.9 cm^2) and eluted with a linear gradient of NaCl (0-500 mM, 500 mL+500 mL) in lysis buffer. Fractions containing both FTase and GGPTase-II were pooled. The GGPTase-I (termed "bGGPTase-I") so obtained was utilized in the assay described below.
Molecular biological manipulations. To construct the C-terminus CAAX box routants, pUC-[L68]RAS1(term.) was digested with the restriction enzymes HincII and NarI to create a vector into which oligonucleotides containing new C-terminal sequences could be ligated. Except where indicated, the amino acids preceding the CAAX sequence are SLK. […]
Transferase Assays. […] Filters were washed four times with 2 mL aliquots of 100% ethanol, mixed with scintillation fluid (10 mL) and then counted in a Beckman LS3801 scintillation counter.
(§1) For inhibition studies, assays were run as described above, except inhibitors were prepared as concentrated solutions in 100% dimethyl sulfoxide and then diluted 20-fold into the enzyme assay mixture. IC50 values were determined with both transferase substrates near KM concentrations. […]

FPTase = target: T2, FPTase (Homo sapiens, UniProt P49354+P49356); assay: In vitro inhibition of recombinant farnesyl-protein transferase (transferase assay); details: 650 nM Ras-CVLS, 100 nM farnesyl diphosphate, 30 °C
T2 construct: made in house
From the text: Molecular biological manipulations. To construct the C-terminus CAAX box routants, pUC-[L68]RAS1(term.) was digested with the restriction enzymes HincII and NarI to create a vector into which oligonucleotides containing new C-terminal sequences could be ligated. Except where indicated, the amino acids preceding the CAAX sequence are SLK. To simplify the nomenclature, [L68]RAS1 (term.)SLKCVLS (J.B. Gibbs et al., Proc. Natl. Acad Sci. U.S.A., 86:6630 (1989)) will be referred to as Ras-CVLS, and this convention is used for all other mutants. The substrate for Frase was Ras-CVLS. The substrate for GGPTase-I was Ras-CAIL.
Transferase Assays. Isoprenyl-protein transferase activity assays were carried out at 30 ° C. unless noted otherwise. A typical reaction contained (in a final volume of 50 μL): [^3 H]farnesyl diphosphate or [^3 H]geranylgeranyl diphosphate, Ras protein, 50 mM HEPES, pH 7.5, 5 mM MgCl2, 5 mM dithiothreitol and isoprenyl-protein transferase. The FPTase employed in the assay was prepared by recombinant expression as described in Omer, C. A., Kral, A. M., Diehl, R. E., Prendergast, G. C., Powers, S., Allen, C. M., Gibbs, J. B. and Kohl, N. E. (1993) Biochemistry 32:5167-5176. After thermally pre-equilibrating the assay mixture in the absence of enzyme, reactions were initiated by the addition of isoprenyl-protein transferase and stopped at timed intervals (typically 15 min) by the addition of 1M HCl in ethanol (1 mL). The quenched reactions were allowed to stand for 15 m (to complete the precipitation process). After adding 2 mL of 100% ethanol, the reactions were vacuum-filtered through Whatman GF/C filters. Filters were washed four times with 2 mL aliquots of 100% ethanol, mixed with scintillation fluid (10 mL) and then counted in a Beckman LS3801 scintillation counter.
as §1

hGGPTase-I = target: T3, hGGPTase-I (Homo sapiens, UniProt P49354+P53609); assay: In vitro inhibition of recombinant human geranylgeranyl protein transferase type I (transferase assay); details: 500 nM Ras-CAIL, 100 nM geranylgeranyl diphosphate, 30 °C
T3 construct: made in house; host or cells: E. coli BL21(DE3), strain RD578
From the text: Cloning of human GGPTase-I βGGI subunit cDNAs. Approximately 1 nmol of GGPTase-I-I purified from bovine brain as described in Moomaw, J.F. and ,Casey, P.J. (1992) J Biol Chem 267:17438-17443, was subjected to electrophoresis on a 11% SDS-polyacrylamide gel and transferred to nitrocellulose paper. The nitrocellulose paper was then stained with Poneeau S to localize the subunit polypeptides. The 48 kDa and 43 kDa bands were excised from the nitroeellulose and sent to Harvard Microchem (Cambridge, Mass.) for processing. High-confidence sequences of five βGGI subunit peptides were obtained. The sequences of these peptides are listed below:
Two degenerate oligonucleotide primers [GCTC-GGATCC-C-(A/G)AA-(A/G)TT-NGT-(A/G)TA-(T/C)TG-(A/G)A (SEQ.ID.NO.:6) and GTCGG-GAATTC-ACN-AT(A/C/T)-GCN-TT(C/T)-TT(C/T)-GC (SEQ.ID.NO.:7)] were synthesized based on portions of two βGGI subunit peptide sequences [IFQYTNFEK (SEQ.ID.NO.:3) (antisense oligo) and TIAFFLSGLDMLD (SEQ.ID.NO.:I) respectively]. The polymerase chain reaction (PCR) (Saiki, R. K., Gelfand, D. H., Stoffel, S., Scharf, S. J., Higuchi, R., Horn, G. T., Mullis, K. B. and Erlich, H. A. (1988) Science 239:[…]) was performed using DNA obtained from a bovine brain eDNA library as template (Vogel, U.S., Dixon, R. A. F., Schaber, M.D., Diehl, R. E., Marshall, M. S., Scoinick, E. M., Sigal, I. S. and Gibbs, J. B. (1988) Nature 335:90-93). […]

Row | IC50 (bGGPTase-I) [µM] | IC50 (FPTase) [µM] | IC50 (hGGPTase-I) [µM] | SMILES
1 | 0.0019 | 0.8 | 0.023 | CC[C@H](C)[C@H](NC(=O)[C@@H](NC[C@@H](N)CS)C(C)C)C(=O)N[C@@H](CC(C)C)C(=O)O [N-(2(R)-amino-3-mercaptopropyl)-valyl-isoleucyl-leucine]
2 | 0.037 | 0.45 | – | CC[C@H](C)[C@@H](CO[C@H](C(=O)N[C@@H](CC(C)C)C(=O)O)C(C)C)NC[C@@H](N)CS [N-[2(S)-(2(S)-(2(R )-amino-3-mercaptopropylamino)-3(S)-methylpentyloxy)-3-methylbutanoyl]-leucine]

Row | SMILES | IC50 (bGGPTase-I) [µM] | IC50 (FPTase) [µM] | IC50 (hGGPTase-I) [µM]
3 | CC(C)C[C@H](NC(=O)[C@@H](/C=C/[C@@H](NC[C@@H](N)CS)C(C)C)C(C)C)C(=O)O [5(S)-[2(R)-amino-3-mercaptopropylamino]-6-methyl(R)-i-propyl-3,4-E-heptenoyl-leucine] | 0.021 | 0.07 | –

Source: patent publication US5470832A, “Inhibitors of geranylgeranyl-protein transferase” (Merck & Co., Inc., priority 1994, dated 1995)
